EC50 data for 9 molecules are collected here from patent US20240270821A1, “GIP/GLP1/GCG TRI-RECEPTOR AGONISTS AND USES THEREOF” (priority 2023, published 2024).

What all share (format): cell-based
One experiment concerns the target hGcgR (Homo sapiens, UniProt P47871). The experiment in a line: Functional cAMP activation in the presence of 0.1% casein (no HSA). Conditions: read-out: Relative cAMP EC50, hGcgR.
The target of experiment [1] is T1, hGLP-1R (Homo sapiens, UniProt P43220). The experiment in a line: Functional cAMP activity in the presence of 1% HSA. Conditions: read-out: cAMP Rel EC50, hGLP-1R.
T1 sequence (P43220 24-463): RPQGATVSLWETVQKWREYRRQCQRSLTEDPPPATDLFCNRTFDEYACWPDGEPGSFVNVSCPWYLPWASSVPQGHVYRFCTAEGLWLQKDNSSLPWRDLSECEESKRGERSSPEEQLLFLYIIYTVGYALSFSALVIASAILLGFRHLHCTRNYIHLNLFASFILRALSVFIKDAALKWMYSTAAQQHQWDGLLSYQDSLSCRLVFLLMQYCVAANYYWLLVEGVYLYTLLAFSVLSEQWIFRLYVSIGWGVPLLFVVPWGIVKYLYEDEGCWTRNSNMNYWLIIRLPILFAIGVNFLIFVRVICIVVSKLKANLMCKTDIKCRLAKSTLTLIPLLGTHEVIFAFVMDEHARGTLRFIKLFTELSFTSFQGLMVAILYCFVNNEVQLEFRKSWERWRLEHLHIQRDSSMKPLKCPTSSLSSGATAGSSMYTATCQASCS
Experiment [2] has as its target T2, hGIPR (Homo sapiens, UniProt P48546).
T2 sequence (P48546 22-466): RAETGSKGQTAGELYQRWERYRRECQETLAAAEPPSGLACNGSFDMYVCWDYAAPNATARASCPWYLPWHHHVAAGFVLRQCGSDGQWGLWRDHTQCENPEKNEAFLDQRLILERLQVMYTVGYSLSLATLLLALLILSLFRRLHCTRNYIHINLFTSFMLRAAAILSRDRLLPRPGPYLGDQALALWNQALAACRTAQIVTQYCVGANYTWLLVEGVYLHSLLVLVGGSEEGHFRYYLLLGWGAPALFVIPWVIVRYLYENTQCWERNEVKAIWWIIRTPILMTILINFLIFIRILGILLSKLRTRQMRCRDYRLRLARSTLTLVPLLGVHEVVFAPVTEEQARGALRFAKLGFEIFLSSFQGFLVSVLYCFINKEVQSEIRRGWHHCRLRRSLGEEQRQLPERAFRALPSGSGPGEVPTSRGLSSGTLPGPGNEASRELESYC
Kind of experiment: Functional cAMP activation in the presence of 0.1% casein (no HSA). Conditions: read-out: Relative cAMP EC50, hGIPR.

For a further experiment, the target named is human GcgR (Homo sapiens, UniProt P47871). The experiment in a line: Functional cAMP activity in the presence of 1% HSA. Conditions: read-out: cAMP Rel EC50, hGcgR.
Chain of human GcgR (P47871 26-477): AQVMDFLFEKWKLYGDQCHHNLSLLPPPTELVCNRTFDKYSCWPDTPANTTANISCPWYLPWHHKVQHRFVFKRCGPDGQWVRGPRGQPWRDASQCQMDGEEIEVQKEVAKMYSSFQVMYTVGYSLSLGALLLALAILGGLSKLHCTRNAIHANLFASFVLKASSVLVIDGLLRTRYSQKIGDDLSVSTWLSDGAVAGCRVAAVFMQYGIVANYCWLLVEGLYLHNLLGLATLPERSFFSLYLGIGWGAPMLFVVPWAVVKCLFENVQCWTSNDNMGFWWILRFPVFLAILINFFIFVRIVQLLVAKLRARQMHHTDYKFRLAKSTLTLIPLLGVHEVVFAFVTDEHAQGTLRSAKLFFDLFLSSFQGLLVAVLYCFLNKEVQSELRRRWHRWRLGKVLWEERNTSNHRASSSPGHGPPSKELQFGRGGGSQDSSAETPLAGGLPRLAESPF
Experiment [3] concerns the target T2, hGIPR. Kind of experiment: Functional cAMP activity in the presence of 1% HSA. Conditions: read-out: cAMP Rel EC50, hGIPR.
Experiment [4] addresses T1, hGLP-1R. The experiment in a line: Functional cAMP activation in the presence of 0.1% casein (no HSA). Conditions: read-out: Relative cAMP EC50, hGLP-1R.
The mark [5] stands for this setting: in the presence of 0.1% casein (no HSA), geometric mean.
The mark [6] stands for this setting: 0.1% casein, no HSA, geometric mean.

Where two headings read alike, the source gives them in different places. Starred links: 1 amine or outer side, 2 acyl side, 3 side chain; linkers in the order of their positions; H or OH if unused. Non-standard residues stand in square brackets, D forms with d. Residues, ends and D or L forms follow the SMILES beside them. Groups on a side chain read outwards from the residue. No end group written: not given here. *: point of attachment. Phe(4-NO2) = N[C@@H](Cc1ccc([N+](=O)[O-])cc1)C(=O)O; C18 diacid = O=C(O)CCCCCCCCCCCCCCCCC(=O)*; αMePhe(2-F) = C[C@](N)(Cc1ccccc1F)C(=O)O; γGlu = O=C(O)[C@H](CCC(=O)[*:2])N[*:1]; αMe4Pal = C[C@](N)(Cc1ccncc1)C(=O)O; αMeY = C[C@](N)(Cc1ccc(O)cc1)C(=O)O; 4Pal = N[C@@H](Cc1ccncc1)C(=O)O; αMeL = CC(C)C[C@](C)(N)C(=O)O; αMeS = C[C@](N)(CO)C(=O)O; Orn = NCCC[C@H](N)C(=O)O; AEEA = NCCOCCOCC(=O)O; Aib = CC(C)(N)C(=O)O
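For Relative cAMP EC50, hGIPR in this document: intracellular cAMP rise after 30 min at 37 °C read by HTRF against a standard curve, scaled between buffer alone (0%) and top control ligand concentration (100%), four-parameter fit.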
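For Relative cAMP EC50, hGLP-1R in this document: intracellular cAMP rise after 30 min at 37 °C read by HTRF, normalized between buffer only (0%) and maximal control ligand (100%), four-parameter variable-slope fit.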
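For Relative cAMP EC50, hGcgR in this document: intracellular cAMP rise after 30 min at 37 °C, read by HTRF against a cAMP standard curve, scaled from buffer only (0%) to maximal control ligand response (100%).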

Chain of hGcgR (P47871 26-477): as above

Consider `CC[C@H](C)[C@H](NC(=O)[C@H](Cc1ccccc1)NC(=O)[C@H](C)NC(=O)C(C)(C)NC(=O)[C@H](CCC(N)=O)NC(=O)[C@H](C)NC(=O)[C@H](CCCCNC(=O)COCCOCCNC(=O)CC[C@H](NC(=O)CCCCCCCCCCCCCCCCC(=O)O)C(=O)O)NC(=O)[C@H](CCCCN)NC(=O)[C@H](CC(=O)O)NC(=O)[C@H](CC(C)C)NC(=O)[C@](C)(CC(C)C)NC(=O)[C@@H](NC(=O)[C@H](CO)NC(=O)[C@H](Cc1ccncc1)NC(=O)[C@H](CC(=O)O)NC(=O)[C@H](CO)NC(=O)[C@@H](NC(=O)[C@](C)(Cc1ccccc1F)NC(=O)[C@@H](NC(=O)CNC(=O)[C@H](CCC(N)=O)NC(=O)C(C)(C)NC(=O)[C@@H](N)Cc1ccc(O)cc1)[C@@H](C)O)[C@@H](C)O)[C@@H](C)CC)C(=O)N[C@@H](CCC(=O)O)C(=O)N[C@@H](Cc1ccc(O)cc1)C(=O)N[C@@H](CC(C)C)C(=O)N[C@@H](CCC(=O)O)C(=O)N[C@@H](CCC(=O)O)C(=O)NCC(=O)NCC(=O)N1CCC[C@H]1C(=O)N[C@@H](CO)C(=O)N[C@@H](CO)C(=O)NCC(=O)N[C@@H](CCC(=O)O)C(=O)N1CCC[C@H]1C(=O)N1CCC[C@H]1C(=O)N1CCC[C@H]1C(=O)N[C@@H](CCC(=O)O)C(N)=O` [Example 487] (H-Y[Aib]QGT[αMePhe(2-F)]TSD[4Pal]SI[αMeL]LDKK([AEEA-γGlu-C18 diacid])AQ[Aib]AFIEYLEEGGPSSGEPPPE-NH2), for which the EC50 at hGcgR was determined as 5.36 nM; at hGLP-1R [1] it was 27.7 nM; on hGIPR [2] it was 0.0286 nM; on human GcgR it was 477 nM; at hGIPR [3] it was 2.26 nM; at hGLP-1R [4] it was 0.639 nM.
As for “Y[Aib]QGTFTSD[4Pal]SQ[αMeL]LDKK([dE-γGlu-C18 diacid])AQ[αMe4Pal]AFIEYLIE[Aib]GPSSGAPPPSGSEE-NH2 [Example 928]”, the concentration giving a half-maximal response (EC50) turned out to be 6.85 nM on hGcgR (setting [5]); 604 nM at hGLP-1R [1]; 0.0883 nM on hGIPR [2] (setting [5]); 1090 nM on human GcgR; 15.1 nM at hGIPR [3]; 3.58 nM at hGLP-1R [4] (setting [5]).
As for “H-Y[Aib]QGTFTSD[4Pal]S[Orn][αMeL]LD[Orn]K([γGlu-γGlu-C18 diacid])AQ[αMe4Pal]AFIEYLIAGGPSSGEPPPSGTEE-NH2 [Example 985]”, the EC50 turned out to be 5.41 nM at hGcgR (setting [5]); 217 nM on hGLP-1R [1]; 0.34 nM at hGIPR [2] (setting [5]); 374 nM at human GcgR; 24 nM on hGIPR [3]; 2.93 nM at hGLP-1R [4] (setting [5]).
Turning to “H-Y[Aib]QGTFTSD[4Pal]SQ[αMeL]LDKK([γGlu-γGlu-C18 diacid])AQ[αMe4Pal]AFIEYLIAGGESSGAPPPSGSEE-NH2 [Example 963]”, the half-maximal effective concentration (EC50) on hGcgR (setting [5]) is 5.81 nM; at hGLP-1R [1], 215 nM; on hGIPR [2] (setting [5]), 0.244 nM; on human GcgR it was 900 nM; on hGIPR [3], 25.1 nM; at hGLP-1R [4] (setting [5]), 1.77 nM.
“H-Y[Aib]QGT[αMePhe(2-F)]TSD[4Pal][αMeS]I[αMeL]LD[Orn]K([AEEA-γGlu-C18 diacid])AQ[αMe4Pal]EFI[dE][αMeY]LIEGGPPS[Aib]EPPPSGSE-NH2 [Example 1200]”: the EC50 turned out to be 1.5 nM on hGcgR (setting [6]); 91.4 nM at hGLP-1R [1]; 0.00883 nM on hGIPR [2] (setting [6]); 278 nM on human GcgR; 0.896 nM on hGIPR [3]; 0.727 nM at hGLP-1R [4] (setting [6]).
With `CC[C@H](C)[C@H](NC(=O)[C@H](Cc1ccccc1)NC(=O)[C@H](C)NC(=O)C(C)(C)NC(=O)[C@H](C)NC(=O)[C@H](C)NC(=O)[C@H](CCCCNC(=O)COCCOCCNC(=O)CC[C@H](NC(=O)CCCCCCCCCCCCCCCCC(=O)O)C(=O)O)NC(=O)[C@H](CCCN)NC(=O)[C@H](CC(=O)O)NC(=O)[C@H](CC(C)C)NC(=O)[C@](C)(CC(C)C)NC(=O)[C@@H](NC(=O)[C@H](CO)NC(=O)[C@H](Cc1ccncc1)NC(=O)[C@H](CC(=O)O)NC(=O)[C@H](CO)NC(=O)[C@@H](NC(=O)[C@](C)(Cc1ccccc1F)NC(=O)[C@@H](NC(=O)CNC(=O)[C@H](CCC(N)=O)NC(=O)C(C)(C)NC(=O)[C@@H](N)Cc1ccc(O)cc1)[C@@H](C)O)[C@@H](C)O)[C@@H](C)CC)C(=O)N[C@H](CCC(=O)O)C(=O)N[C@@](C)(Cc1ccc(O)cc1)C(=O)N[C@@H](CC(C)C)C(=O)N[C@@H](CC(C)C)C(=O)N[C@@H](CCC(=O)O)C(=O)NCC(=O)NCC(=O)N1CCC[C@H]1C(=O)N[C@@H](CO)C(=O)N[C@@H](CO)C(=O)NCC(=O)N[C@@H](CCC(=O)O)C(=O)N1CCC[C@H]1C(=O)N1CCC[C@H]1C(=O)N1CCC[C@H]1C(=O)N[C@@H](CO)C(N)=O` [Example 1236] (H-Y[Aib]QGT[αMePhe(2-F)]TSD[4Pal]SI[αMeL]LD[Orn]K([AEEA-γGlu-C18 diacid])AA[Aib]AFI[dE][αMeY]LLEGGPSSGEPPPS-NH2), the EC50 at hGcgR (setting [6]) came out at 0.947 nM; on hGLP-1R [1] (HEK-293 cells expressing hGLP-1R, 1% HSA, geometric mean of relative EC50) it was 95.8 nM; on hGIPR [2] (setting [6]), 0.052 nM; on human GcgR (HEK-293 cells expressing hGcgR, 1% HSA, geometric mean of relative EC50), 502 nM; at hGIPR [3] (HEK-293 cells expressing hGIPR, 1% HSA, geometric mean of relative EC50), 11.9 nM; on hGLP-1R [4] (setting [6]), 0.304 nM.
As for “H-Y[Aib]QGT[αMePhe(2-F)]TSD[4Pal][αMeS]I[αMeL]LD[Orn]K([AEEA-γGlu-C18 diacid])AQ[αMe4Pal]EFI[dE][αMeY]LVEGGPSSGAPPPSGSE-NH2 [Example 751]”, the concentration for a half-maximal effect (EC50) on hGcgR worked out at 1.9 nM; on hGLP-1R [1], 32.3 nM; at hGIPR [2] it was 0.00759 nM; on human GcgR it was 267 nM; at hGIPR [3] it was 1.27 nM; at hGLP-1R [4], 0.302 nM.
As to `CC[C@H](C)[C@H](NC(=O)[C@H](Cc1ccccc1)NC(=O)[C@H](C)NC(=O)C(C)(C)NC(=O)[C@H](CCC(N)=O)NC(=O)[C@H](C)NC(=O)[C@H](CCCCNC(=O)COCCOCCNC(=O)CC[C@H](NC(=O)CCCCCCCCCCCCCCCCC(=O)O)C(=O)O)NC(=O)[C@H](CCCCN)NC(=O)[C@H](CC(=O)O)NC(=O)[C@H](CC(C)C)NC(=O)[C@](C)(CC(C)C)NC(=O)[C@@H](NC(=O)[C@H](CO)NC(=O)[C@H](Cc1ccc([N+](=O)[O-])cc1)NC(=O)[C@H](CC(=O)O)NC(=O)[C@H](CO)NC(=O)[C@@H](NC(=O)[C@](C)(Cc1ccccc1F)NC(=O)[C@@H](NC(=O)CNC(=O)[C@H](CCC(N)=O)NC(=O)C(C)(C)NC(=O)[C@@H](N)Cc1ccc(O)cc1)[C@@H](C)O)[C@@H](C)O)[C@@H](C)CC)C(=O)N[C@@H](CCC(=O)O)C(=O)N[C@@H](Cc1ccc(O)cc1)C(=O)N[C@@H](CC(C)C)C(=O)N[C@@H](CCC(=O)O)C(=O)N[C@@H](CCC(=O)O)C(=O)NCC(=O)NCC(=O)N1CCC[C@H]1C(=O)N[C@@H](CO)C(=O)N[C@@H](CO)C(=O)NCC(=O)N[C@@H](C)C(=O)N1CCC[C@H]1C(=O)N1CCC[C@H]1C(=O)N1CCC[C@H]1C(=O)N[C@@H](CCC(=O)O)C(N)=O` [Example 495] (H-Y[Aib]QGT[αMePhe(2-F)]TSD[Phe(4-NO2)]SI[αMeL]LDKK([AEEA-γGlu-C18 diacid])AQ[Aib]AFIEYLEEGGPSSGAPPPE-NH2), the EC50 on hGcgR was 1.75 nM; at hGLP-1R [1] it was 53.8 nM; on hGIPR [2] it was 0.0361 nM; on human GcgR, 205 nM; at hGIPR [3], 5.74 nM; on hGLP-1R [4] it was 0.274 nM.
Turning to “H-Y[Aib]QGT[αMePhe(2-F)]TSDYSILLDKK([AEEA-γGlu-C18 diacid])AQ[Aib]AFIEYLEEGGPSSGAPPPEEG-NH2 [Example 399]”, the EC50 at hGcgR amounted to 1.51 nM; at hGLP-1R [1] it was 42.8 nM; on hGIPR [2], 0.0413 nM; at human GcgR, 560 nM; at hGIPR [3], 19.6 nM; at hGLP-1R [4] it was 0.302 nM.

Usually EC50 stands for the midpoint of the concentration-response curve.
